Assay results: patent publication US12258344B2, “Azaaromatic amide derivatives for the treatment of cancer” (SHENZHEN FORWARD PHARMACEUTICALS CO., LTD., priority 2019, dated 2025)
Like-named read-outs stand apart in the source and are kept apart here. One block for each molecule: values may come before it.

Columns and labels:
Format in all cases: cell-based
BaF3 (EGFR/A763insFQEA) = BaF3 (EGFR/A763insFQEA) (Homo sapiens, UniProt P00533, INS763FQEA, cells depend on it); assay: Test 14: EGFR exon 20 inserted A763insFQEA cell proliferation test; conditions: 72 hours, Cell Titer-Glo, read-out: Test 14 IC50
Protocol: Test 14: EGFR Exon 20 Inserted A763insFQEA Cell Proliferation Test
(§1) The number of viable cells in the culture was measured according to the protocol described in Promega's Cell Titer-Glo Luminescent cell Viability Assay (Promega catalog number #G7570). 90 μl of cells (3,000 cells/well) were cultured in growth medium in a Corning black transparent bottom 96-well plate, and cultured in a 5% CO2 humidified incubator at 37° C. overnight. The compound serially diluted in 100% DMSO was added to the cells using a pipette, and the cells were incubated for another 72 hours. 100 μl of the mixed Cell Titer-Glo reagent was added to the cells in the 96-well culture plate to lyse the cells and mix gently. Subsequently, the […] was detected on the Envision microplate detector to obtain the data of each compound. Finally, the data was input into a suitable software package (such as Prism) for curve fitting analysis.

BaF3 (EGFR/V769insASV) = BaF3 (EGFR/V769insASV) (Homo sapiens, UniProt P00533, DUP767-769, cells depend on it); assay: Test 15: EGFR exon 20 inserted V769insASV cell proliferation test; conditions: 72 hours, Cell Titer-Glo, read-out: Test 15 IC50
Protocol: Test 15: EGFR Exon 20 Inserted V769insASV Cell Proliferation Test
as §1, with “(3000” for “(3,000”

BaF3 (EGFR/D770insSVD) [1] = target: T1, BaF3 (EGFR/D770insSVD) (Homo sapiens, UniProt P00533, DUP768-770, cells depend on it); assay: Test 13: EGFR exon 20 inserted D770insSVD cell proliferation test; conditions: BaF3 (EGFR/D770insSVD), 72 hours, Cell Titer-Glo, read-out: Test 13 IC50
T1 construct: Test 13 IC50 (nM); other: BaF3 (EGFR/D770insSVD), 72 hours, Cell Titer-Glo
Method in brief: (§2)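 BaF3 cells expressing EGFR D770insSVD, 3,000 cells/well, seeded overnight at 37° C, 5% CO2, then exposed to serially diluted compound for 72 h. Viable cells read by CellTiter-Glo luminescence; values from curve fitting.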

BaF3 (EGFR/D770insNPG) = BaF3 (EGFR/D770insNPG) (Homo sapiens, UniProt P00533, cells depend on it, form not given); assay: Test 17: EGFR exon 20 inserted D770insNPG cell proliferation test; conditions: 72 hours, Cell Titer-Glo, read-out: Test 17 IC50
Protocol: Test 17: EGFR Exon 20 Inserted D770insNPG Cell Proliferation Test
as §1

BaF3 (EGFR/N771insH) = target: T2, BaF3 (EGFR/N771insH) (Homo sapiens, UniProt P00533, cells depend on it, form not given); assay: Test 16: EGFR exon 20 inserted N771insH cell proliferation test; conditions: BaF3 (EGFR/N771insH), 72 hours, Cell Titer-Glo, read-out: Test 16 IC50
T2 construct: Test 16 IC50 (nM); other: BaF3 (EGFR/N771insH), 72 hours, Cell Titer-Glo

BaF3 (HER2/A775insYVMA) [2] = target: T3, BaF3 (HER2/A775insYVMA) (Homo sapiens, UniProt P04626, cells depend on it, form not given); assay: Test 21: HER2 exon 20 inserted A775insYVMA cell proliferation test; conditions: tests 21-23, in words
T3 construct: other: tests 21-23, in words; other: HER2 exon 20 insertion mutation cells, tests 21-23
Protocol: (§3) Test 21: HER2 Exon 20 Inserted A775insYVMA Cell Proliferation Test
as §1

BaF3 (EGFR/D770insSVD) [3] = target: T4, BaF3 (EGFR/D770insSVD) (Homo sapiens, UniProt P00533, cells depend on it, form not given); assay: Test 13: EGFR exon 20 inserted D770insSVD cell proliferation test; conditions: A763insFQEA, V769insASV, D770insSVD (tests 13-15), in words
T4 construct: other: A763insFQEA, V769ins
Method in brief: as §2

BaF3 (HER2-A775insYVMA) = BaF3 (HER2-A775insYVMA) (Homo sapiens, UniProt P04626, DUP772-775, cells depend on it); assay: Test 9: BaF3 (HER2-A775insYVMA) cell proliferation test; conditions: 72 hours, Cell Titer-Glo, read-out: Test 9 - IC50
Protocol: Test 9: BaF3 (HER2-A775insYVMA) Cell Proliferation Test
BaF3 (HER2-A775insYVMA) was cultured in RPMI1640 medium containing 10% fetal bovine serum and 2 mM glutamine. The cells were grown at 37° C. in a humidified incubator with 5% CO2.
as §1

BaF3 (HER2/A775insYVMA) [4] = target: T5, BaF3 (HER2/A775insYVMA) (Homo sapiens, UniProt P04626, cells depend on it, form not given); assay: Test 21: HER2 exon 20 inserted A775insYVMA cell proliferation test; conditions: read-out: test 21 IC50; BaF3 (HER2/A775insYVMA), 72 hours, Cell Titer-Glo
T5 construct: other: BaF3 (HER2/A775insYVMA), 72 hours, Cell Titer-Glo
Protocol: as §3, §1

BaF3 (HER2/P780insGSP) = BaF3 (HER2/P780insGSP) (Homo sapiens, UniProt P04626, cells depend on it, form not given); assay: Test 22: HER2 exon 20 inserted P780insGSP cell proliferation test; conditions: 72 hours, Cell Titer-Glo, read-out: test 22 IC50
Protocol: Test 22: HER2 Exon 20 Inserted P780insGSP Cell Proliferation Test
(§4) The engineered cell line BaF3 (HER2/P780insGSP) was constructed by the inventor himself (for the method of cell line construction, see Jingrui Jiang et al., Cancer Res. 2005 Oct. 1; 65 (19): 8964-74; Jacqulyne P. Robichaux et al., Nat Med. 2018 May; 24 (5): 638-646). BaF3 (HER2/P780insGSP) was cultured in RPMI 1640 medium containing 10% fetal bovine serum and 2 mM glutamine, and the cells were grown at 37° C. in a humidified incubator with 5% CO2.
as §1

BaF3 (HER2/G776insVC) = BaF3 (HER2/G776insVC) (Homo sapiens, UniProt P04626, cells depend on it, form not given); assay: Test 23: HER2 exon 20 inserted G776insVC cell proliferation test; conditions: read-out: test 23 IC50, 72 hours, Cell Titer-Glo
Protocol: Test 23: HER2 Exon 20 Inserted G776insVC Cell Proliferation Test
as §1

[5] = system: NCI-H1975 (EGFR L858R/T790M double mutant); assay: Test 1: EGFR L858R/T790M (EGFR double mutant) cell proliferation test; conditions: Homo sapiens; NCI-H1975 cells, 72 hours, Cell Titer-Glo
BaF3 (HER2-G776insVC) = BaF3 (HER2-G776insVC) (Homo sapiens, UniProt P04626, cells depend on it, form not given); assay: Test 11: BaF3 (HER2-G776insVC) cell proliferation test; conditions: 72 hours, Cell Titer-Glo, read-out: Test 11 - IC50
Protocol: Test 11: BaF3 (HER2-G776insVC) Cell Proliferation Test
as §4, with “(HER2-G776insVC)” for “(HER2/P780insGSP)”, “RPMI1640” for “RPMI 1640”, “glutamine. The” for “glutamine, and the”
as §1

BaF3 (HER2-P780insGSP) = BaF3 (HER2-P780insGSP) (Homo sapiens, UniProt P04626, DUP778-780, cells depend on it); assay: Test 10: BaF3 (HER2-P780insGSP) cell proliferation test; conditions: 72 hours, Cell Titer-Glo, read-out: Test 10 - IC50
Protocol: Test 10: BaF3 (HER2-P780insGSP) Cell Proliferation Test
BaF3 (HER2-P780insGSP) was cultured in RPMI1640 medium containing 10% fetal bovine serum and 2 mM glutamine. The cells were grown at 37° C. in a humidified incubator with 5% CO2.
as §1

BaF3 (EGFR/S768I) = target: T6, BaF3 (EGFR/S768I) (Homo sapiens, UniProt P00533, cells depend on it, form not given); assay: Test 19: EGFR/S768I mutant cell line proliferation test; conditions: EGFR S768I and EGFR L861Q (tests 19-20), in words
T6 construct: other: EGFR S768I and EGFR L8
Protocol: Test 19: EGFR/S768I Mutant Cell Line Proliferation Test
as §1

GI50 (BaF3 (EGFR/A763insFQEA)): 13 nM
GI50 (BaF3 (EGFR/V769insASV)): 28.4 nM
GI50 (BaF3 (EGFR/D770insSVD) [1]): 45 nM
GI50 (BaF3 (EGFR/D770insNPG)): 4.58 nM
GI50 (BaF3 (EGFR/N771insH)): 9.43 nM
Molecule: C=CC(=O)Nc1cc(Nc2nccc(-c3cn(C)c4ccccc34)n2)c(OCC(F)(F)F)nc1N(C)CCN(C)C.CS(=O)(=O)O [Compound 31, N-(2-((2-(dimethylamino)ethyl(methyl)amine)-5-((4-(1-methyl-1H-indol-3-yl)pyrimidine-2-yl)amino)-6-(2,2,2-trifluoroethoxy)pyridin-3-yl)acrylamide methanesulfonate]

Molecule: (R)—N-(5-((4-(1H-pyrrole[3,2-c]pyridin-1-yl)-1,3,5-triazin-2-yl)amino)-2-(2-((dimethylamino)methyl)azetidine-1-yl)-4-methoxyphenyl)acrylamide [Example 1]
cell activity compared with Osimertinib (AZD9291) against HER2 exon 20 insertion mutation (BaF3 (HER2/A775insYVMA) [2]): superior cell activity over Osimertinib (AZD9291)
cell activity compared with Osimertinib (AZD9291) against EGFR exon 20 insertion mutations (BaF3 (EGFR/D770insSVD) [3]): significant superior cell activity over Osimertinib (AZD9291)

Molecule: C=CC(=O)Nc1cc(Nc2nccc(-c3cn(C)c4ccccc34)n2)c(OC)cc1N(C)CCN(C)C [Osimertinib (AZD9291), Osimertinib, reference compound]
GI50 (BaF3 (HER2-A775insYVMA)): 61.2 nM
GI50 (BaF3 (HER2/A775insYVMA) [4]): 32.2 nM
GI50 (BaF3 (HER2/P780insGSP)): 21.5 nM
GI50 (BaF3 (HER2/G776insVC)): 61.2 nM
GI50 (BaF3 (HER2-G776insVC)): 21.5 nM
GI50 (BaF3 (HER2-P780insGSP)): 32.2 nM

GI50 (BaF3 (EGFR/A763insFQEA)): 15 nM
GI50 (BaF3 (EGFR/V769insASV)): 25.7 nM
GI50 (BaF3 (EGFR/D770insSVD) [1]): 49.5 nM
GI50 (BaF3 (EGFR/D770insNPG)): 5.87 nM
GI50 (BaF3 (EGFR/N771insH)): 10.1 nM
Molecule: C=CC(=O)Nc1cc(Nc2nccc(-c3cn(C)c4ccccc34)n2)c(OCC(F)(F)F)nc1N(C)CCN(C)C [Compound 33]
activity compared with Osimertinib (AZD9291) against EGFR S768I and EGFR L861Q mutations (BaF3 (EGFR/S768I)): superior activity over Osimertinib (AZD9291)

GI50 (BaF3 (EGFR/A763insFQEA); hydrochloride): 15.7 nM
GI50 (BaF3 (EGFR/V769insASV); hydrochloride): 26.9 nM
GI50 (BaF3 (EGFR/D770insSVD) [1]; hydrochloride): 54.5 nM
GI50 (BaF3 (EGFR/D770insNPG); hydrochloride): 4.73 nM
GI50 (BaF3 (EGFR/N771insH); hydrochloride): 10.2 nM
Molecule: C=CC(=O)Nc1cc(Nc2nccc(-c3cn(C)c4ccccc34)n2)c(OCC(F)(F)F)nc1N(C)CCN(C)C.Cl [Compound 32, N-(2-((2-(dimethylamino)ethyl(methyl)amine)-5-((4-(1-methyl-1H-indol-3-yl)pyrimidine-2-yl)amine)-6-(2,2,2-trifluoroethoxy)pyridin-3-yl)acrylamide hydrochloride]
